The NIST ThermoML archive (doi:10.1021/je900077g)

Assay: excess molar enthalpy (molar enthalpy of mixing); xn = mol fraction of the nth substance listed
Conditions: 308.15 K, 101 kPa, Liquid, Calvet calorimetry

C1COCCO1 [1,4-dioxane] + C1CCCCC1
Conditions | excess molar enthalpy [kcal/mol]
x2 = 0.101 | 0.136
x2 = 0.204 | 0.251
x2 = 0.288 | 0.319
x2 = 0.408 | 0.374
x2 = 0.506 | 0.3872
x2 = 0.606 | 0.376
x2 = 0.705 | 0.343
x2 = 0.803 | 0.275
x2 = 0.9 | 0.166

C1CCOCC1 [tetrahydropyran] + C1CCCCC1
Conditions | excess molar enthalpy [kcal/mol]
x2 = 0.101 | 0.0375
x2 = 0.2 | 0.0703
x2 = 0.3 | 0.0985
x2 = 0.4 | 0.117
x2 = 0.499 | 0.126
x2 = 0.606 | 0.124
x2 = 0.699 | 0.11
x2 = 0.8 | 0.0848
x2 = 0.9 | 0.0473

C1CCOCC1 [tetrahydropyran] + C1COCCO1
Conditions | excess molar enthalpy [kcal/mol]
x1 = 0.104 | 0.0356
x1 = 0.201 | 0.0595
x1 = 0.299 | 0.0753
x1 = 0.398 | 0.0841
x1 = 0.497 | 0.0863
x1 = 0.612 | 0.0817
x1 = 0.716 | 0.0707
x1 = 0.8 | 0.0562
x1 = 0.9 | 0.0323
